Test results: ChEMBL document CHEMBL4507257, “Data for DCP probe ABT-100” (2021)

Tests used:
[1] = biological target: Serine/threonine-protein kinase 32C (Homo sapiens) (UniProt Q86UX6); conditions: Compound concentration 1000.0 nM
[2] = biological target: Mu-type opioid receptor (Homo sapiens) (UniProt P35372); conditions: Compound concentration 10.0 uM
[3] = biological target: Dual specificity mitogen-activated protein kinase kinase 1 (Homo sapiens) (UniProt Q02750); conditions: Compound concentration 1000.0 nM
[4] = biological target: Casein kinase I isoform epsilon (Homo sapiens) (UniProt P49674); conditions: Compound concentration 1000.0 nM
[5] = biological target: Serine/threonine-protein kinase RIO1 (Homo sapiens) (UniProt Q9BRS2); conditions: Compound concentration 1000.0 nM
[6] = biological target: Fibroblast growth factor receptor 2 (Homo sapiens) (UniProt P21802); conditions: Compound concentration 1000.0 nM
[7] = biological target: Cyclin-dependent kinase 4 (Homo sapiens) (UniProt P11802); conditions: Compound concentration 1000.0 nM
[8] = biological target: Serine/threonine-protein kinase WNK2 (Homo sapiens) (UniProt Q9Y3S1); conditions: Compound concentration 1000.0 nM
[9] = biological target: T1, Muscarinic acetylcholine receptor M4 (Homo sapiens) (UniProt P08173); conditions: Compound concentration 10.0 uM
T1 sequence (whole entry): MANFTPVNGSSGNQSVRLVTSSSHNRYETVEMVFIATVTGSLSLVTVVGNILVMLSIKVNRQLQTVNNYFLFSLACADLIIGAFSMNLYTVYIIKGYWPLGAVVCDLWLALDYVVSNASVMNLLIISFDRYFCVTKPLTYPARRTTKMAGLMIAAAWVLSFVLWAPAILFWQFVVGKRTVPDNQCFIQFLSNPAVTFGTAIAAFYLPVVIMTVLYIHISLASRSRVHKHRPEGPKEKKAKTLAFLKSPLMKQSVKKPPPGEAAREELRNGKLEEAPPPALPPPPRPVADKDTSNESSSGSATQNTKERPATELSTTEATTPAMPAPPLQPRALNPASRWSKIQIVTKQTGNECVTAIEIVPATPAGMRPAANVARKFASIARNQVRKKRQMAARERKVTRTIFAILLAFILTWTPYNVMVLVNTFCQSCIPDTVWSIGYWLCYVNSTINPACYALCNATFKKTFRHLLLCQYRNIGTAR

[10] = biological target: Insulin-like growth factor 1 receptor (Homo sapiens) (UniProt P08069); conditions: Compound concentration 1000.0 nM
[11] = biological target: Protein-tyrosine kinase 2-beta (Homo sapiens) (UniProt Q14289); conditions: Compound concentration 1000.0 nM
[12] = biological target: Serine/threonine-protein kinase 3 (Homo sapiens) (UniProt Q13188); conditions: Compound concentration 1000.0 nM
[13] = biological target: Homeodomain-interacting protein kinase 4 (Homo sapiens) (UniProt Q8NE63); conditions: Compound concentration 1000.0 nM
[14] = biological target: Testis-specific serine/threonine-protein kinase 1 (Homo sapiens) (UniProt Q9BXA7); conditions: Compound concentration 1000.0 nM
[15] = biological target: Calcium/calmodulin-dependent protein kinase type II subunit delta (Homo sapiens) (UniProt Q13557); conditions: Compound concentration 1000.0 nM
[16] = biological target: Ribosomal protein S6 kinase alpha-1 (Homo sapiens) (UniProt Q15418); conditions: Compound concentration 1000.0 nM
[17] = tested on: Mast/stem cell growth factor receptor Kit (Homo sapiens), P10721 [L576P]; conditions: Compound concentration 1000.0 nM
[18] = biological target: Serine/threonine-protein kinase NIM1 (Homo sapiens) (UniProt Q8IY84); conditions: Compound concentration 1000.0 nM
[19] = biological target: Vascular endothelial growth factor receptor 3 (Homo sapiens) (UniProt P35916); conditions: Compound concentration 1000.0 nM
[20] = biological target: Mast/stem cell growth factor receptor Kit (Homo sapiens) (UniProt P10721); conditions: Compound concentration 1000.0 nM
[21] = biological target: Ephrin type-A receptor 7 (Homo sapiens) (UniProt Q15375); conditions: Compound concentration 1000.0 nM
[22] = biological target: Serine/threonine-protein kinase Nek7 (Homo sapiens, UniProt Q8TDX7); conditions: Compound concentration 1000.0 nM
[23] = biological target: Serine/threonine-protein kinase PAK 5 (Homo sapiens) (UniProt Q9P286); conditions: Compound concentration 1000.0 nM
[24] = biological target: Tyrosine-protein kinase Mer (Homo sapiens) (UniProt Q12866); conditions: Compound concentration 1000.0 nM
[25] = biological target: Serine/threonine-protein kinase MARK1 (Homo sapiens) (UniProt Q9P0L2); conditions: Compound concentration 1000.0 nM
[26] = biological target: Casein kinase II subunit alpha (Homo sapiens) (UniProt P68400); conditions: Compound concentration 1000.0 nM
[27] = biological target: Ribosomal protein S6 kinase alpha-3 (Homo sapiens) (UniProt P51812); conditions: Compound concentration 1000.0 nM
[28] = tested on: Tyrosine-protein kinase ABL1 (Homo sapiens), P00519 [Q252H]; conditions: Compound concentration 1000.0 nM
[29] = biological target: Glycogen synthase kinase-3 beta (Homo sapiens) (UniProt P49841); conditions: Compound concentration 1000.0 nM
[30] = biological target: Serine/threonine-protein kinase WNK4 (Homo sapiens) (UniProt Q96J92); conditions: Compound concentration 1000.0 nM
[31] = biological target: Mitogen-activated protein kinase 8 (Homo sapiens) (UniProt P45983); conditions: Compound concentration 1000.0 nM
[32] = tested on: Tyrosine-protein kinase ABL1 (Homo sapiens), P00519 [Q252H]; conditions: Compound concentration 1000.0 nM; remark: listed apart in the source
[33] = biological target: 1-phosphatidylinositol 3-phosphate 5-kinase (Homo sapiens) (UniProt Q9Y2I7); conditions: Compound concentration 1000.0 nM
[34] = biological target: Rho-associated protein kinase 2 (Homo sapiens) (UniProt O75116); conditions: Compound concentration 1000.0 nM
[35] = tested on: Mast/stem cell growth factor receptor Kit (Homo sapiens), P10721 [V559D]; conditions: Compound concentration 1000.0 nM
[36] = biological target: Dual specificity mitogen-activated protein kinase kinase 6 (Homo sapiens) (UniProt P52564); conditions: Compound concentration 1000.0 nM
[37] = biological target: Cyclin-dependent kinase 4 (Homo sapiens) (UniProt P11802); conditions: Compound concentration 1000.0 nM; remark: listed apart in the source
[38] = biological target: Phosphatidylinositol 4-phosphate 3-kinase C2 domain-containing subunit beta (Homo sapiens) (UniProt O00750); conditions: Compound concentration 1000.0 nM
[39] = biological target: Protein kinase C theta type (Homo sapiens) (UniProt Q04759); conditions: Compound concentration 1000.0 nM

Cyclin-dependent kinase 4 (Homo sapiens), sequence (P11802 whole entry, the tested form may be a part): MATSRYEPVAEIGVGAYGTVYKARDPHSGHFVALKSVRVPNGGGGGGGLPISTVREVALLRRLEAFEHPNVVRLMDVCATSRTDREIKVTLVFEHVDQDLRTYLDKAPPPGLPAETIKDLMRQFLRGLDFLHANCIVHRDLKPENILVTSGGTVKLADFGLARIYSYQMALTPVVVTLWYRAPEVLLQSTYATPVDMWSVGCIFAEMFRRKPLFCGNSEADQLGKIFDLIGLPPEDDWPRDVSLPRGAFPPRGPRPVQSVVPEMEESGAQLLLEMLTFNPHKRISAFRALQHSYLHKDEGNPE
Serine/threonine-protein kinase Nek7, sequence (Q8TDX7 whole entry, looked up): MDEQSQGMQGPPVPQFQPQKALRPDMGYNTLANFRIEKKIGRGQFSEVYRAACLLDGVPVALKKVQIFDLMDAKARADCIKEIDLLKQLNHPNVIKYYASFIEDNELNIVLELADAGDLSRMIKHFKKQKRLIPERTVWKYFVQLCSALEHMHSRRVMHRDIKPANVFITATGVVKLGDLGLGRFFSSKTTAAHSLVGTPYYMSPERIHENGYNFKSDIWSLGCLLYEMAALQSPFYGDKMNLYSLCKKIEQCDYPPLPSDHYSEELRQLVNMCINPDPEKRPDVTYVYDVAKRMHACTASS
Insulin-like growth factor 1 receptor (Homo sapiens), sequence (P08069 31-736 limits assumed): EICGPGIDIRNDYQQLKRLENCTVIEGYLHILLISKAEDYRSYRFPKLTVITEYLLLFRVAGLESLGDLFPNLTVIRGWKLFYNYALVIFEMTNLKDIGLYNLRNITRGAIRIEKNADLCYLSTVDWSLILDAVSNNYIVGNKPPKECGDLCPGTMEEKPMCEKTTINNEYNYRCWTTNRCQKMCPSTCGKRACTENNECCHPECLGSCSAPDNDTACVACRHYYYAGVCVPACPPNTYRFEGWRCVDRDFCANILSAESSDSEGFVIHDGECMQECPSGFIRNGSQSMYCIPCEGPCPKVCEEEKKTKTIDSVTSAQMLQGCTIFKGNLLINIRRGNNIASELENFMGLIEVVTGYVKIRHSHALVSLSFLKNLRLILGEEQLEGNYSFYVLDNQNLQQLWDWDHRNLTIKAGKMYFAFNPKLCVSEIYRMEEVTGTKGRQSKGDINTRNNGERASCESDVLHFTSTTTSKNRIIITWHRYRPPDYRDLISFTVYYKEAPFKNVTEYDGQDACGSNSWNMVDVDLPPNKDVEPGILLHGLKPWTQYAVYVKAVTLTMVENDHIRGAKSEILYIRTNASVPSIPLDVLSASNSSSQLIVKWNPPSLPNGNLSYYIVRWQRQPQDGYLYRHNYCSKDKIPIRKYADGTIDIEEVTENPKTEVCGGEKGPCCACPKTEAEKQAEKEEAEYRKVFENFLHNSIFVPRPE
Insulin-like growth factor 1 receptor (Homo sapiens), sequence (P08069 741-1367 limits assumed): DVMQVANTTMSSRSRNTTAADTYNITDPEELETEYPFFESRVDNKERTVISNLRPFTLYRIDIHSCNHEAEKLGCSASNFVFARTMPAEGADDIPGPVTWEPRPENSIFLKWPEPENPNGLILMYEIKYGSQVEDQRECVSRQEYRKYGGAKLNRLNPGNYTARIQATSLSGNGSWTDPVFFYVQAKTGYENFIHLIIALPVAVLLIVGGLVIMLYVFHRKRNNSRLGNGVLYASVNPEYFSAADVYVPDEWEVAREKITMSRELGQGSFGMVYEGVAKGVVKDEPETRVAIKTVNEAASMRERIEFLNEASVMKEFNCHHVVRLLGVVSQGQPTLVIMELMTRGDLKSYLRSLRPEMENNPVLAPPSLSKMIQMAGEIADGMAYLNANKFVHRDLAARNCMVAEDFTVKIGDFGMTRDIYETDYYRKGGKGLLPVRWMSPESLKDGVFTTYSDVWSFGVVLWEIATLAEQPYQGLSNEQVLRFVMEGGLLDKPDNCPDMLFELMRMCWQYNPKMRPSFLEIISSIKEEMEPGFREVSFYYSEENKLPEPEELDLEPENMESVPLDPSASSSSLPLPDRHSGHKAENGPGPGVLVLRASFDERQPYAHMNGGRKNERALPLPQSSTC
Fibroblast growth factor receptor 2 (Homo sapiens), sequence (P21802 22-821 limits assumed): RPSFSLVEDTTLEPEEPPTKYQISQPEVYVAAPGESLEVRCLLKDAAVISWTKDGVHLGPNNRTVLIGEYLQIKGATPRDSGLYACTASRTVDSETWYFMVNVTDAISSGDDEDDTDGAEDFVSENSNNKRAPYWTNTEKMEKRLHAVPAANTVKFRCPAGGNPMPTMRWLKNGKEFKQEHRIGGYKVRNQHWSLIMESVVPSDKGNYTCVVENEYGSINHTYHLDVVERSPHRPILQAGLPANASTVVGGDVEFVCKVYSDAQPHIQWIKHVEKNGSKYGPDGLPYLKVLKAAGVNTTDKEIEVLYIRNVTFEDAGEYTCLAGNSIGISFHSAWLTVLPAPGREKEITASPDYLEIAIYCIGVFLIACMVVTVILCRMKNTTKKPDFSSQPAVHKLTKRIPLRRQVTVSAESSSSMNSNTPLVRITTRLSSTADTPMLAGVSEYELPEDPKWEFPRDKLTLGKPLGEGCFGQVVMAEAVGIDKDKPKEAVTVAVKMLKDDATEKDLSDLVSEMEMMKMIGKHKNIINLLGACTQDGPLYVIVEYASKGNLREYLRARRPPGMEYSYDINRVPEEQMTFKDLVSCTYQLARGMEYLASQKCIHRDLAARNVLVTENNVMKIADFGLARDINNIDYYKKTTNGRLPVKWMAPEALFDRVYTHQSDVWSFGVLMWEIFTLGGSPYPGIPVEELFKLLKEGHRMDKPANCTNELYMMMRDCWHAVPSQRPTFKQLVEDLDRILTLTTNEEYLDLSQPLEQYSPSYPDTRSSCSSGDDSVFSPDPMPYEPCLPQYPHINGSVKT
Serine/threonine-protein kinase WNK2 (Homo sapiens), sequence (Q9Y3S1 whole entry): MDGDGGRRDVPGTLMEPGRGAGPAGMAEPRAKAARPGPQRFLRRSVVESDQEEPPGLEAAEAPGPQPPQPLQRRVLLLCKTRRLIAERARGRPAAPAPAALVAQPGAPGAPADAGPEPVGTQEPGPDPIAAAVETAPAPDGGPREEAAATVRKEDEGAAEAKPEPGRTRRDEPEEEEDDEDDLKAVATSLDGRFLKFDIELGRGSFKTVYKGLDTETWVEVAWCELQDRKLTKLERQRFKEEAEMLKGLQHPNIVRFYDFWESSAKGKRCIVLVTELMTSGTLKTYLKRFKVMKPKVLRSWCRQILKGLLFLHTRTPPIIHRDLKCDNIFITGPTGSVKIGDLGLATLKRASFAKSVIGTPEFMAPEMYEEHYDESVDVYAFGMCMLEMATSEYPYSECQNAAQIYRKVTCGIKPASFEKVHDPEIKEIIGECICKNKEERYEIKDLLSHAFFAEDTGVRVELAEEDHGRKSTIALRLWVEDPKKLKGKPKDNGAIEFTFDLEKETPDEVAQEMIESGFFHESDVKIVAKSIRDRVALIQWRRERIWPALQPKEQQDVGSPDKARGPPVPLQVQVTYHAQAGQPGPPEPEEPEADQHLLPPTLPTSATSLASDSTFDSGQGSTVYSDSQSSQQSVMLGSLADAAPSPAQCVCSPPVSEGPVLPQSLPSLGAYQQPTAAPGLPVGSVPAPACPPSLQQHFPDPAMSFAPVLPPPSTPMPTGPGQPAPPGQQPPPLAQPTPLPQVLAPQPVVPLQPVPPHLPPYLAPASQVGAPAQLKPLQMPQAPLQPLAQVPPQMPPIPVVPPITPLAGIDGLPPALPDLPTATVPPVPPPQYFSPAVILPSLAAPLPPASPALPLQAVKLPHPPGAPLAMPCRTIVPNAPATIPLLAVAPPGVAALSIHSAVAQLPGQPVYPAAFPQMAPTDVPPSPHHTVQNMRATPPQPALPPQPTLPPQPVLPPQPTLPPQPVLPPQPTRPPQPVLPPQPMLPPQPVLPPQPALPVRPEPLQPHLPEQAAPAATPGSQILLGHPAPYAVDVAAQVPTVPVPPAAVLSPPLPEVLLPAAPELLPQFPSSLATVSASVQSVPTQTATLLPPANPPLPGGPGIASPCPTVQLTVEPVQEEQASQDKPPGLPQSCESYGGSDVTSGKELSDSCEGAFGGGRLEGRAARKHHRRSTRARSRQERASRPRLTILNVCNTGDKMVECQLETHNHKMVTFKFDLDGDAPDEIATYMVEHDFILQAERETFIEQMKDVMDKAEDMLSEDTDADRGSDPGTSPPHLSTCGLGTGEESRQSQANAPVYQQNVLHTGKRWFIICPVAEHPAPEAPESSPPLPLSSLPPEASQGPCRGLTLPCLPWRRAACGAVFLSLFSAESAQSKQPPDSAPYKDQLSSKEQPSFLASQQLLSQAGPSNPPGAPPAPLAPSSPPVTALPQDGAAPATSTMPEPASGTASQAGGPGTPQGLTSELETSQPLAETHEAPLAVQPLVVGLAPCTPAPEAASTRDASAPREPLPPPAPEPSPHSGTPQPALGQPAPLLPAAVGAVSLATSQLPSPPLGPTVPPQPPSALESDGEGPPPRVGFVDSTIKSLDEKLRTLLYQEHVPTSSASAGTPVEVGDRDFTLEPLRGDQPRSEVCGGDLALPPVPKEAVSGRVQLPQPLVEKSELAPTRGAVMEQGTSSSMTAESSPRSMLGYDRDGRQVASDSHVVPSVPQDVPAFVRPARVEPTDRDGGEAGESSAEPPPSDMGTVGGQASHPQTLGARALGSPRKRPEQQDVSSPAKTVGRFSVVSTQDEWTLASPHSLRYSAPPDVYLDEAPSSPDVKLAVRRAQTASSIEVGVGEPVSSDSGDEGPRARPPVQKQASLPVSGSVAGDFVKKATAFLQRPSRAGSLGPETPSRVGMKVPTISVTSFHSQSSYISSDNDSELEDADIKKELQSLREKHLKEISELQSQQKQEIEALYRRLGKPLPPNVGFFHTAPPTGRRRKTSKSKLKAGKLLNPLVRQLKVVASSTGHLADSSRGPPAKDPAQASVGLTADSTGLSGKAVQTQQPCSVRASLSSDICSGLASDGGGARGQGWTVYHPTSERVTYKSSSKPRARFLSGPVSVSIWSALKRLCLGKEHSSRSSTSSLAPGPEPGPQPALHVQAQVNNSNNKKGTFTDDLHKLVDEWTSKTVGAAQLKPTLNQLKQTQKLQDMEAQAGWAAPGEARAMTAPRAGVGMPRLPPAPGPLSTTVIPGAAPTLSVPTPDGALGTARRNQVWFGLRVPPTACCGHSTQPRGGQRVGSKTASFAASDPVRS

## Cn1cncc1[C@@](O)(COc1ccc(C#N)cc1-c1ccc(OC(F)(F)F)cc1)c1ccc(C#N)cc1 [A-108]
[1]
  residual activity: 80%
[2]
  inhibition: -3.25%
[3]
  residual activity: 89%
[4]
  residual activity: 100%
[5]
  residual activity: 100%
[6]
  residual activity: 100%
[7]
  residual activity: 92%
[8]
  residual activity: 84%
[9]
  inhibition: -9.7%
[10]
  residual activity: 100%
[11]
  residual activity: 100%
[12]
  residual activity: 95%
[13]
  residual activity: 100%
[14]
  residual activity: 70%
[15]
  residual activity: 95%
[16]
  residual activity: 72%
[17]
  residual activity: 95%
[18]
  residual activity: 97%
[19]
  residual activity: 90%
[20]
  residual activity: 90%
[21]
  residual activity: 100%
[22]
  residual activity: 99%
[23]
  residual activity: 100%
[24]
  residual activity: 69%
[25]
  residual activity: 100%
[26]
  residual activity: 100%
[27]
  residual activity: 72%
[28]
  residual activity: 84%
[29]
  residual activity: 100%
[30]
  residual activity: 85%
[31]
  residual activity: 77%
[32]
  residual activity: 76%
[33]
  residual activity: 100%
[34]
  residual activity: 100%
[35]
  residual activity: 97%
[36]
  residual activity: 94%
[37]
  residual activity: 93%
[38]
  residual activity: 95%
[39]
  residual activity: 100%

## Cn1cncc1[C@](O)(COc1ccc(C#N)cc1-c1ccc(OC(F)(F)F)cc1)c1ccc(C#N)cc1 [ABT-100]
[1]
  residual activity: 84%
[2]
  inhibition: 16.4%
[3]
  residual activity: 100%
[4]
  residual activity: 77%
[5]
  residual activity: 72%
[6]
  residual activity: 86%
[7]
  residual activity: 100%
[8]
  residual activity: 67%
[9]
  inhibition: 6.8%
[10]
  residual activity: 92%
[11]
  residual activity: 62%
[12]
  residual activity: 77%
[13]
  residual activity: 86%
[14]
  residual activity: 100%
[15]
  residual activity: 100%
[16]
  residual activity: 89%
[17]
  residual activity: 100%
[18]
  residual activity: 87%
[19]
  residual activity: 77%
[20]
  residual activity: 95%
[21]
  residual activity: 91%
[22]
  residual activity: 46%
[23]
  residual activity: 94%
[24]
  residual activity: 84%
[25]
  residual activity: 57%
[26]
  residual activity: 63%
[27]
  residual activity: 87%
[28]
  residual activity: 100%
[29]
  residual activity: 93%
[30]
  residual activity: 100%
[31]
  residual activity: 100%
[32]
  residual activity: 96%
[33]
  residual activity: 100%
[34]
  residual activity: 94%
[35]
  residual activity: 100%
[36]
  residual activity: 76%
[37]
  residual activity: 100%
[38]
  residual activity: 89%
[39]
  residual activity: 79%
